# In patent US20260098007A1, “Compounds and Their Use in Filtering Ultraviolet and/or High-Energy Visible Light” (Soliome Inc., priority 2022, published 2026):
# Where a SMILES comes first, the peptide text is derived from it. [ ]: non-standard residue; d: D form. Kyn = Nc1ccccc1C(=O)C[CH](N)C(=O)O
# Legend:
# [1] = OxiSelect Hydroxyl Radical Antioxidant Capacity (HORAC) Activity Assay; format: biochemical; details: for antioxidant potential (HORAC) compared with gallic acid: result in words
# Excerpt: An OxiSelect Hydroxyl Radical Antioxidant Capacity (HORAC) Activity Assay (Cell Biolabs Inc. catalog #STA-346-T) was used to determine the antioxidant potential of compound 4 (butyl 4-(2-aminophenyl)-2-(4-(2-aminophenyl)-2-butyramido-4-oxobutanamido)-4-oxobutanoate) following the manufacturer's protocol. Gallic Acid (GA) was used as antioxidant Calibrator: The HORAC assay was used to evaluate the application of the compounds of the invention as antioxidant.
# A small amount of compound 4 was resuspended in assay diluent and the concentration determined using the extinction coefficient previously determined at 368 nm (6070 M^−1 cm^−1). The concentration of the stock solution was 624 μM. Three concentrations of the compound were tested in the assay: 468 μM, 312 μM, and 156 μM. The assay was run in a clear bottomed 96-well plate using a Molecular Devices SpectraMax M2 with an excitation wavelength of 480 nm and an emission wavelength of 530 nm. The emission wavelength cutoff was set to 515 nm. The photomultiplier sensitivity set to medium. The plate was read once a minute for 60 minutes.
# Compounds 42, 43, 44, and 46, were tested for their antioxidant capacity as described as previously described using an OxiSelect Hydroxyl Radical Antioxidant Capacity (HORAC) Activity Assay (Cell Biolabs Inc. catalog #sta-346-T).
# [2] = Determination of maximal UV absorbance, extinction coefficients and critical wavelengths (UV visible spectroscopy); format: physicochemical; details: for peak absorbance: UV visible spectroscopy, diluted in ethanol; for critical wavelength: in vitro, 90% of the total absorbance integrated from 290 to 400 nm
# Experimental: Extinction coefficients were determined by measuring the dry mass of each compounds and diluting it serially in ethanol (CAS […]). A series of concentrations were tested with UV visible spectroscopy.
# In vitro critical wavelengths were determined by integrating the total absorbance from 290 to 400 nm and finding the region under that curve from higher energy to lower energy that is equal to 90% of the total absorbance, similar to that described by Diffey B. L., et al. J. Am. Acad. Dermatol. 2000, 43, 1024-1035.
# skin = test: Skin protection against damage by UV (erythema); format: in vivo; details: 10% (w/w) solution at 2 mg/cm^2 on skin, Sperti Sun Lamp 20 cm for 10 min, vs unprotected skin
# Experimental: To test the protective capability of this class of compounds against damage to skin by UV, a 10% (w/w) solution of compounds was applied to skin at 2 mg/cm^2 and allowed to dry for 15 minutes. UV light was introduced using a […] Sun Lamp (model Miami P107). The application area on the skin was held facing the lamp at a distance of 20 cm for 10 min.
# [3] = Absorbance spectrum (ultraviolet-visible spectroscopy, diode array detector); format: physicochemical; details: for absorbance region (in words): FIG. 1 and 2
# Experimental: High pressure liquid chromatography: Samples were suspended in ethanol (Sigma Aldrich 103343081, CAS 64-17-5) and injected onto a reverse phase base deactivated silica C-18 column, […], 150×4.6 mm (Hypersil 9867). This column was temperature controlled at 35° C. using a Shimadzu CTO-10A column oven. Samples were injected with a Shimadzu SIL-10AD VP auto injector. The program was run using a Shimadzu LC1-20AD pump system, and detection was monitored with ultraviolet-visible spectroscopy from 200 to 700 nm using a Shimadzu SPD-M20A diode array detector.
smiles,measurement,setting,value
"COC(=O)C(CC(=O)c1ccccc1N)NC(=O)C[N+](C)(C)C (centres unmarked) [Compound 43, 2-((4-(2-aminophenyl)-1-methoxy-1,4-dioxobutan-2-yl)amino)-N,N,N-trimethyl-2-oxoethan-1-aminium]",antioxidant potential (HORAC) compared with gallic acid,[1],"equal, or greater than, gallic acid"
"CC(=O)NC(CC(=O)c1ccccc1N)C(N)=O (centres unmarked) [Compound 44, 2-acetamido-4-(2-aminophenyl)-4-oxobutanamide]",antioxidant potential (HORAC) compared with gallic acid,[1],"equal, or greater than, gallic acid"
"CCCCOC(=O)C(CC(=O)c1ccccc1N)NC(=O)C(CC(=O)c1ccccc1N)NC(=O)CCC (centres unmarked) [Compound 4, butyl 4-(2-aminophenyl)-2-(4-(2-aminophenyl)-2-butyramido-4-oxobutanamido)-4-oxobutanoate]",antioxidant potential (HORAC),"[1]; tested at 468 μM, 312 μM and 156 μM, gallic acid as calibrator",1.8 gallic acid equivalents per mole
same,peak absorbance,[2],around 368 nm
same,critical wavelength,[2],385 nm
"CCCCOC(=O)C(CC(=O)c1ccccc1NC(=O)CCC)NC(=O)C(CC(=O)c1ccccc1NC(=O)CCC)NC(=O)CCC (centres unmarked) [Compound 5, butyl 2-(2-butyramido-4-(2-butyramidophenyl)-4-oxobutanamido)-4-(2-butyramidophenyl)-4-oxobutanoate]",peak absorbance,[2],around 325 nm
same,critical wavelength,[2],355 nm
same,extinction coefficient,"[2]; slope of absorbance vs concentration, in ethanol, at peak absorbance",4600 M⁻¹ cm⁻¹
"Nc1ccccc1C(=O)CC(NC(=O)CCC(=O)O)C(=O)O (centres unmarked) [Compound 42, 4-(2-aminophenyl)-2-(3-carboxypropanamido)-4-oxobutanoic acid]",erythema after UV exposure,skin,significantly reduced erythema
same,antioxidant potential (HORAC) compared with gallic acid,[1],"equal, or greater than, gallic acid"
"COC(=O)C(CC(=O)c1ccccc1N)NC(=O)C(CC(=O)c1ccccc1N)NC(C)=O (centres unmarked) [Compound 1, methyl 2-(2-acetamido-4-(2-aminophenyl)-4-oxobutanamido)-4-(2-aminophenyl)-4-oxobutanoate] (Ac-[Kyn]-[Kyn]-OMe; configuration not given here)",absorbance upper wavelength limit,[3]; FIG. 1,up to 410 nm
same,absorbance region (in words),[3],strong absorbance in the UVA region
"CCCC(=O)Nc1ccccc1C(=O)CC(NC(C)=O)C(=O)NC(CC(=O)c1ccccc1NC(=O)CCC)C(=O)OC (centres unmarked) [Compound 2, Methyl 2-(2-acetamido-4-(2-butyramidophenyl)-4-oxobutanamido)-4-(2-butyramidophenyl)-4-oxobutanoate]",absorbance region (in words),[3],strong absorbance in the UVB region
"Nc1ccccc1C(=O)CC(NC(=O)CCCC(=O)O)C(=O)O (centres unmarked) [Compound 46, 5-((3-(2-aminophenyl)-1-carboxy-3-oxopropyl)amino)-5-oxopentanoic acid]",antioxidant potential (HORAC) compared with gallic acid,[1],"equal, or greater than, gallic acid"
